Test system: tobacco budworm (Heliothis virescens [Fabricius])
Assay: surface-treated diet test, insecticidal activity against tobacco budworm
Assay type: in vivo
Conditions: 0.25 millimoles of candidate insecticide on the surface of the diet, second instar larvae, five-day exposure; for Percent Mortality: compared to total number of insects infested; for Percent Growth Inhibition: inhibition of insect weight relative to untreated controls
Outline: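 Wheat germ artificial diet surface-treated with compound from 50 mM DMSO stock diluted 1:7 in 1:1 water/acetone (0.25 millimolar on diet), or lower-rate dilutions; DMSO-only controls. One second-instar larva per well, 25° C, 60% RH, 14 h light, five days; percent weight inhibition versus untreated and percent mortality scored.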

SMILES	Percent Mortality	Percent Growth Inhibition
[O-][N+]1(Cc2ccc(C3OCCO3)cc2)CCC(O)(C(c2ccc(C(F)(F)F)cc2)c2ccc(C(F)(F)F)cc2)CC1 (stereo not shown) [Compound 342]	100%	100%
[O-][N+]1(Cc2ccc(Oc3ccccn3)cc2)CCC(O)(C(c2ccc(OC(F)(F)F)cc2)c2ccc(Cl)cc2Cl)CC1 (stereo not shown) [Compound 454]	100%	100%
[O-][N+]1(Cc2ccc(Oc3ccccn3)cc2)CCC(O)(C(F)(c2ccc(OC(F)(F)F)cc2)c2ccc(OC(F)(F)F)cc2)CC1 (stereo not shown) [Compound 430]	100%	100%
Cc1ccc(C(c2ccc(OC(F)(F)F)cc2)C2(O)CC[N+]([O-])(Cc3ccc(Oc4ccccn4)cc3)CC2)cc1 (stereo not shown) [Compound 340]	100%	100%
NC(=O)CON=Cc1ccc(C[N+]2([O-])CCC(O)(C(c3ccc(OC(F)(F)F)cc3)c3ccc(OC(F)(F)F)cc3)CC2)cc1 (stereo not shown) [Compound 410]	100%	100%
CCCOC(=O)Nc1ccc(CN2CCC(O)(C(c3ccc(OC(F)(F)F)cc3)c3ccc(OC(F)(F)F)cc3)CC2)cc1 [Compound 310]	100%	100%
[O-][N+]1(Cc2ccc(Oc3ccccn3)cc2)CCC(O)(C(c2ccc(OC(F)(F)F)cc2)c2ccc(Cl)cc2F)CC1 (stereo not shown) [Compound 463]	100%	100%
[O-][N+]1(Cc2ccc(Oc3ccccn3)cc2)CCC(O)(C(c2ccc(OC(F)(F)F)cc2)c2ccccc2Cl)CC1 (stereo not shown) [Compound 459]	100%	100%
OC1(C(c2ccc(OC(F)(F)F)cc2)c2ccc(OC(F)(F)F)cc2)CCN(Cc2ccc(Oc3ncccc3C(F)(F)F)cc2)CC1 [Compound 30]	100%	100%
CON=C(Cl)c1ccc(CN2CCC(O)(C(c3ccc(OC(F)(F)F)cc3)c3ccc(OC(F)(F)F)cc3)CC2)cc1 [Compound 277]	100%	100%
Cl.OC1(C(c2ccc(OC(F)(F)F)cc2)c2ccc(OC(F)(F)F)cc2)CCN(Cc2ccc(Oc3ccccn3)cc2)CC1 [Compound 522]	100%	100%
OC1(C(c2ccc(OC(F)(F)C(F)C(F)(F)F)cc2)c2ccc(OC(F)(F)C(F)C(F)(F)F)cc2)CCN(Cc2ccc(Oc3ncccn3)cc2)CC1 (stereo not shown) [Compound 306]	100%	100%
CCON=Cc1ccc(C[N+]2(O)CCC(O)(C(c3ccc(OC(F)(F)F)cc3)c3ccc(OC(F)(F)F)cc3)CC2)cc1.CCS(=O)(=O)[O-] (stereo not shown) [Compound 491]	100%	100%
OC(c1ccc(CN2CCC(O)(C(c3ccc(OC(F)(F)F)cc3)c3ccc(OC(F)(F)F)cc3)CC2)cc1)c1ccccn1 (racemic) [Compound 282]	100%	100%
[O-][N+]1(Cc2ccc(Oc3ccccn3)cc2)CCC(O)(C(c2ccc(OC(F)(F)F)cc2)c2ccc(Cl)c(Cl)c2)CC1 (stereo not shown) [Compound 455]	100%	100%
[O-][N+]1(Cc2ccc(Oc3ncccn3)cc2)CCC(O)(C(c2ccc(Cl)c(F)c2)c2ccc(Cl)c(F)c2)CC1 (stereo not shown) [Compound 115]	50%	100%
Oc1ccc(CN2CCC(O)(C(c3ccc(C(F)(F)F)cc3)c3ccc(C(F)(F)F)cc3)CC2)cc1 [Compound 302]	17%	100%
OC1(C(c2ccc(OC(F)(F)F)cc2)c2ccc(OC(F)(F)F)cc2)CCN(Cc2ccc(-c3ccccn3)cc2)CC1 [Compound 309]	100%	100%

SMILES	Percent Mortality	Percent Growth Inhibition
CC(C)(C)c1ccc(C(c2ccc(OC(F)(F)F)cc2)C2(O)CC[N+]([O-])(Cc3ccc(Oc4ccccn4)cc3)CC2)cc1 (stereo not shown) [Compound 335]	100%	100%
[O-][N+]1(Cc2ccc(Oc3ccccn3)cc2)CCC(O)(C(c2ccc(Cl)cc2)c2ccc(Cl)cc2)CC1 (stereo not shown) [Compound 345]	100%	100%
CCCOc1ccc(CN2CCC(O)(C(O)(c3ccc(OC(F)(F)F)cc3)c3ccc(OC(F)(F)F)cc3)CC2)cc1 [Compound 91]	100%	100%
[O-][N+]1(Cc2ccc(-c3ncccn3)cc2)CCC(O)(C(c2ccc(OC(F)(F)F)cc2)c2ccc(OC(F)(F)F)cc2)CC1 (stereo not shown) [Compound 116]	100%	100%
O=C(Nc1ccc(CN2CCC(O)(C(c3ccc(OC(F)(F)F)cc3)c3ccc(OC(F)(F)F)cc3)CC2)cc1)OCC1CC1 [Compound 327]	100%	100%
CCOC(=O)COc1ccc(CN2CCC(O)(C(c3ccc(OC(F)(F)F)cc3)c3ccc(OC(F)(F)F)cc3)CC2)cc1 [Compound 279]	83%	100%
O=C(O)CC(O)(CC(=O)O)C(=O)[O-].OC1(C(c2ccc(OC(F)(F)F)cc2)c2ccc(OC(F)(F)F)cc2)CC[N+](O)(Cc2ccc(Oc3ccccn3)cc2)CC1 (stereo not shown) [Compound 504]	100%	100%
CC(C)OC(=O)Nc1ccc(CN2CCC(O)(C(O)(c3ccc(OC(F)(F)F)cc3)c3ccc(OC(F)(F)F)cc3)CC2)cc1 [Compound 419]	100%	100%
OC1(C(c2ccc(OC(F)(F)F)cc2)c2ccc(C(F)(F)F)cc2)CCN(Cc2ccc(Oc3ccccn3)cc2)CC1 (stereo not shown) [Compound 265]	100%	100%
O=C(NC1CCCCC1)Oc1ccc(CN2CCC(O)(C(c3ccc(OC(F)(F)F)cc3)c3ccc(OC(F)(F)F)cc3)CC2)cc1 [Compound 329]	67%	100%
OC1(C(c2ccc(OC(F)(F)F)cc2)c2ccc(Cl)cc2F)CCN(Cc2ccc(Oc3ccccn3)cc2)CC1 (stereo not shown) [Compound 445]	100%	100%
CC(=O)NCC1(C(c2ccc(C(F)(F)F)cc2)c2ccc(C(F)(F)F)cc2)CCN(Cc2ccc(Oc3ncccn3)cc2)CC1 [Compound 451]	0%	100%
CCn1nnc(-c2ccc(C[N+]3([O-])CCC(O)(C(O)(c4ccc(OC(F)(F)F)cc4)c4ccc(OC(F)(F)F)cc4)CC3)cc2)n1 (stereo not shown) [Compound 426]	100%	100%
CCON=Cc1ccc(C[N+]2([O-])CCC(O)(C(c3ccc(Cl)cc3)c3ccc(OC(F)(F)F)cc3)CC2)cc1 (stereo not shown) [Compound 405]	100%	100%
CCON=Cc1ccc(CN2CCC(O)(C(O)(c3ccc(OC(F)(F)F)cc3)c3ccc(OC(F)(F)F)cc3)CC2)cc1 [Compound 417]	100%	100%
OC1(C(c2ccc(OC(F)(F)F)cc2)c2ccc(OC(F)(F)F)cc2)CCN(Cc2ccc(C3OCCO3)cc2)CC1 [Compound 263]	100%	100%
OC1(C(c2ccc(OC(F)(F)F)cc2)c2ccc(C(F)(F)F)cc2)CCN(Cc2ccc(Oc3ncccn3)cc2)CC1 (stereo not shown) [Compound 2]	100%	100%

Reference: US8119563B2, “N-substituted azacycles” (FMC Corporation, priority 2003, dated 2012)
